For this test, the target named is PASK (Homo sapiens, UniProt Q96RG2, F1266C/Y899H). The note with it: read-out: Km for PASK; ATP as co-substrate.
Sequence of PASK (Q96RG2 whole entry Y899H/F1266C): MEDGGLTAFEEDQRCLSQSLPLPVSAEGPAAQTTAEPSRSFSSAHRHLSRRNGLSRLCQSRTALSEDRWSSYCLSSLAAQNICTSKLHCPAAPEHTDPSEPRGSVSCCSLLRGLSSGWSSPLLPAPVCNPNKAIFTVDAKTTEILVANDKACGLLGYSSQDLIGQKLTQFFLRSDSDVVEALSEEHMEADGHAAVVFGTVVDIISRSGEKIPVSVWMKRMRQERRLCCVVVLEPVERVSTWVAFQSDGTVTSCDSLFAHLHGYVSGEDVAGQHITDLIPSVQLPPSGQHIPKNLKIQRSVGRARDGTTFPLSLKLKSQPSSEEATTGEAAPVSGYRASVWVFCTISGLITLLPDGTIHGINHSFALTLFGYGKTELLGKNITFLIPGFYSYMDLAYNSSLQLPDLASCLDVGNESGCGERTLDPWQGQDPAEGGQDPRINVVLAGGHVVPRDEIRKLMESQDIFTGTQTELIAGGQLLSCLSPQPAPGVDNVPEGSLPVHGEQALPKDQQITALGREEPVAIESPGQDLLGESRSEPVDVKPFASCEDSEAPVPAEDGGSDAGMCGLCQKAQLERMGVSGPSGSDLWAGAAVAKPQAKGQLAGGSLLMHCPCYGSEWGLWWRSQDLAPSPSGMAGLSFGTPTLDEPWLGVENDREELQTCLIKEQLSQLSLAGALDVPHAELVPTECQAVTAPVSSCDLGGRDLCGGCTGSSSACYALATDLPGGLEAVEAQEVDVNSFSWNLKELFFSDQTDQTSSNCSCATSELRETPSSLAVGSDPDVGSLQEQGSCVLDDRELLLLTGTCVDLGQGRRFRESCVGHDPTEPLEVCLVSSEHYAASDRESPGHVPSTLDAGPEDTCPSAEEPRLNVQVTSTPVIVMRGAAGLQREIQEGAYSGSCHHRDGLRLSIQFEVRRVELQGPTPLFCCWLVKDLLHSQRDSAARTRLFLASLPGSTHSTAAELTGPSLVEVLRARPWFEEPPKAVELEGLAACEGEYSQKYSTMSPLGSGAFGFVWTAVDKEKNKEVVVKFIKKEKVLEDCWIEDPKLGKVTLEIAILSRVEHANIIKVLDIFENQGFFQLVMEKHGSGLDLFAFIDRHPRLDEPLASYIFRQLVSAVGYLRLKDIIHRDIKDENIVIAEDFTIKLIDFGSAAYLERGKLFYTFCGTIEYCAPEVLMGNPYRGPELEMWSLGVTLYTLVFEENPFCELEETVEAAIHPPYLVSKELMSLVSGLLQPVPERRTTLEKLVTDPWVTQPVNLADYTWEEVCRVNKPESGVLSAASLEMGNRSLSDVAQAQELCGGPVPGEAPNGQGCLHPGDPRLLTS

Method: One HTS assay kinase assay we employ is a robust and simple, non-radioactive chemiluminescent assay that measures the ability of the human enzyme to phosphorylate a biotinylated derivative of the AMARA peptide. The enzyme is expressed in baculovirus and purified by affinity and ion-exchange chromatography under routine conditions. Assay buffer is composed of 20 mM Tris-HC1, pH 7.5, 10 mM MgC12, 2 mM EGTA, 0.1% NP-40, 0.5 mM benzamidine, 1 mM NaF and 10 mM DTT. Enzyme is added to this buffer at a concentration determined to be in the linear range of activity (10 ng per microtiter plate well). For the most robust and sensitive kinase assay, we use an ATP concentration matching the Kmfor PASK (2.5 mM). After dispensing 80 ul of the enzyme/buffer mix per well in Costar 96-well microtiter plates (coated with Neutravidin at 0.5 mg/ml at room temperature for 2 hr), 10 μl of test compounds is added at a final concentration of 1 μM compound. Compounds are diluted in DMSO from master plates stored in DMSO at 10 mM. Following compound addition, the reactions are initiated by addition of 10 μl of biotinylated AMARA peptide and ATP such that the final concentration of substrate and ATP are 1 mM and 2.5 mM respectively. […] Reactions are developed by addition of 100 μl of Super Signal substrate (Pierce) and read colorimetrically using a Wallac Victor2, 1420 Multilabel Counter.

For the molecule `Nc1ncnc2c1ncn2[C@@H]1O[C@H](COP(=O)(O)OP(=O)(O)OP(=O)(O)O)[C@@H](O)[C@H]1O` [ATP], the Michaelis-Menten constant (Km) came to 2500 µM.

For the origin of these results see patent US7132278B2, “PAS kinase” (Board of Regents, The University of Texas System, priority 2001, dated 2006).
